Measured values as given in publication PMC4878759 (PLoS ONE, 2016).
Like-named read-outs stand apart in the source and are kept apart here.

How the values were obtained:
VRAC [1] = test: VRAC activity by YFP quenching in LN215 cells; format: cell-based, human; conditions: 10 μM
Protocol: LN215 cells, a human glioma cell line, were stably transfected with YFP-F46L/H148Q/I152L, a halide sensor YFP. After the cells were incubated on 96well black plates (Corning Inc., Corning, NY) for 48 hours, each well of the 96-well plate was washed 3 times in PBS (200 μL/wash), and the wells were filled with 50 μl/well isotonic solution (in mM): 140 NaCl, 5 KCl, 20 HEPES (310 mOsm/kg; pH 7.4 with NaOH). In each well, VRAC expressed on the cells were stimulated with addition of 50 μl of hypotonic solutions (in mM): 5 KCl, 20 HEPES, 90 mannitol (120 mOsm/kg). Test compounds (1 μL) were added to each well in a dose dependent manner. After 5 min, 96-well plates were transferred to a plate reader for fluorescence assay. Each well was assayed individually for VRAC-mediated I^- influx by recording fluorescence continuously (400 ms per point) for 7.6 s. YFP fluorescence was recorded 0.4 s for baseline, then 100 μL of 140 mM I^- solution was added at 0.4 s to see the change in fluorescence. Initial iodide influx rate was determined from the initial slope of fluorescence decrease, by nonlinear regression, following infusion of iodide.

VRAC [2] = test: Whole-cell patch clamp of hypotonicity-induced VRAC currents in LN215 cells; format: cell-based, human; conditions: 10 μM
Description: Pipettes were pulled from borosilicate glass and had resistances of 3–5 MΩ after fire polishing. […] The liquid junction potential (~2.4 mV) was not corrected. After establishing the whole-cell configuration, whole-cell capacitance and series resistance were compensated with the amplifier circuitry. […] VRAC was activated by exposing LN215 cells to a 25% hypotonic bath solution.

ANO1 = tested on: ANO1; design: method as in PMID 22526416; conditions: ref [38]; cited from earlier work
ANO2 = tested on: ANO2; design: method as in PMID 22526416; conditions: ref [38]; cited from earlier work
VRAC [3] = tested on: VRAC; design: method as in PMID 24965069, PMID 25163766, PMID 26438191; conditions: ref [26]–[28]; cited from earlier work
ENaC = biological target: T1, ENaC (Homo sapiens, UniProt P37088+P51168+P51170); test: Short circuit current in T84 cells expressing ENaC; format: cell-based; conditions: 100 μM
T1 construct: endogenous in cells; host or cells: T84 cells, ENaC induced with 2 mM sodium butyrate for 2 days
T1 sequence (P37088 1-669): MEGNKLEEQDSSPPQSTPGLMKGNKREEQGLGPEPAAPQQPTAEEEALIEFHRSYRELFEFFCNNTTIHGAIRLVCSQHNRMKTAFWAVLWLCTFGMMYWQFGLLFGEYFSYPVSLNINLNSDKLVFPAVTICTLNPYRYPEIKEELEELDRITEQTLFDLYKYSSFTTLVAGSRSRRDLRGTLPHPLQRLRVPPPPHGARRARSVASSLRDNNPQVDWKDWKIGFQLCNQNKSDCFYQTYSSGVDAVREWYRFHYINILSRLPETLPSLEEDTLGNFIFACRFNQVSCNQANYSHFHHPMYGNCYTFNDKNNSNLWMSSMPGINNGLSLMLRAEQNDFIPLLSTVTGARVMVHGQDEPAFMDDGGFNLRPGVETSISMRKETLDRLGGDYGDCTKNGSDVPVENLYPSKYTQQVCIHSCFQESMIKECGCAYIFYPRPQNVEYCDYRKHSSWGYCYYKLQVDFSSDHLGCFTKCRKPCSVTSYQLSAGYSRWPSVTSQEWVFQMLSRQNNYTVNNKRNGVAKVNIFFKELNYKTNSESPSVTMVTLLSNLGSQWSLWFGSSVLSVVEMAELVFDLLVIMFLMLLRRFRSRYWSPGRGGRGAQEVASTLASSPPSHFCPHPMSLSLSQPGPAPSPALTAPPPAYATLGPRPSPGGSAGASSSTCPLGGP
T1 sequence (P51168 1-640): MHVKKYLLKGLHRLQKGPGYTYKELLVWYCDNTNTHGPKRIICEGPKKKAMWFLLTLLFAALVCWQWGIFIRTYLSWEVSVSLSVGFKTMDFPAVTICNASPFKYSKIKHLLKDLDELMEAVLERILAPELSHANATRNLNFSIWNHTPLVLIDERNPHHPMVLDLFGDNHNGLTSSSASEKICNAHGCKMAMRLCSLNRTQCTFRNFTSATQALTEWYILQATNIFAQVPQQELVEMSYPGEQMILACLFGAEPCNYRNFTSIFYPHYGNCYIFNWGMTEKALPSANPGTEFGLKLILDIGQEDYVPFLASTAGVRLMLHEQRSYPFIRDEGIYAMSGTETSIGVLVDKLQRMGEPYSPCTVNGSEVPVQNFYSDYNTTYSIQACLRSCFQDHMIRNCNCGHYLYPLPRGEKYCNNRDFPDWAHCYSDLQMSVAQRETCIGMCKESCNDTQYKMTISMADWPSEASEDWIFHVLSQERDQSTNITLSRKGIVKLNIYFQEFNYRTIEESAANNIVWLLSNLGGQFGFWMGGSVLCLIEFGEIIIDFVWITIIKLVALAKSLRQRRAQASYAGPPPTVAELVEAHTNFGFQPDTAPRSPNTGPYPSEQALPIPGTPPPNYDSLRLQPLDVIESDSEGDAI
T1 sequence (P51170 1-649): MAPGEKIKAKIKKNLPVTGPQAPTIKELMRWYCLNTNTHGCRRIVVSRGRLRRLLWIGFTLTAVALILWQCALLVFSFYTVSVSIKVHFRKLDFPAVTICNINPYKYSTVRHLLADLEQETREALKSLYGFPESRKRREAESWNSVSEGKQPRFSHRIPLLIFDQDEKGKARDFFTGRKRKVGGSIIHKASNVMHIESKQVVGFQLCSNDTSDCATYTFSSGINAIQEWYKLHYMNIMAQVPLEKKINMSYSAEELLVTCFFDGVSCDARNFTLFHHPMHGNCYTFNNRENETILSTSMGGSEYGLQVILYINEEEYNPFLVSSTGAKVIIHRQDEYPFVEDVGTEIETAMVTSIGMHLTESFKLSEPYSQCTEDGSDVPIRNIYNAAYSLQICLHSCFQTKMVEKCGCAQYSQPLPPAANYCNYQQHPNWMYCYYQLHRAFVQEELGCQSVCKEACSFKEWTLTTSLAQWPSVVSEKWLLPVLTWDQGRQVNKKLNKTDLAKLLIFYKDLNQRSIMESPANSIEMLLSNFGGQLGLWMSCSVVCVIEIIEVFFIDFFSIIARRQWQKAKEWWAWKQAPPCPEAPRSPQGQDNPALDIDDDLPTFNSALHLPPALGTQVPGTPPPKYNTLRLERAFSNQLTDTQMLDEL
Protocol: Snapwell inserts containing ANO1, ANO2 or CFTR expressing FRT cells, ENaC expressing T-84 cells or the human primary airway epithelial cells were mounted in Ussing chambers (Physiologic Instruments, San Diego, CA). To induce transcriptional ENaC induction, the polarized T84 cells were incubated with 2 mM sodium butyrate for 2 days. To increase the functional expression of ANO1, the human airway epithelial cells were treated with IL-4 (10 ng/mL) for 2 days. For T-84 and the human primary airway epithelial cells, the apical and basolateral bath were filled with HCO3^—buffered solution containing (in mM): 120 NaCl, 5 KCl, 1 MgCl2, 1 CaCl2, 10 D-glucose, 2.5 HEPES, and 25 NaHCO3 (pH 7.4). For FRT cells, the basolateral bath was filled with the HCO3^—buffered solution and the apical bath was filled with a half-Cl^- solution. In the half-Cl^- solution 65 mM NaCl in the HCO3^—buffered solution was replaced by Na-gluconate. […] ATP was applied to the apical bath solution to induce intracellular calcium increase. […] Apical membrane currents were measured with an EVC4000 Multi-Channel V/I Clamp (World Precision Instruments, Sarasota, FL) and PowerLab 4/35 (AD Instruments, Castle Hill, Australia). Data were analyzed using Labchart Pro 7 (AD Instruments). The sampling rate was 4 Hz.
ANO1 was activated by either 10 μM Eact, an ANO1 activator, or 100 μM ATP.

Row | Compound | inhibition of ANO1 (ANO1) | inhibition of ANO2 (ANO2) | further results
1 | CCCCC1(C2CCCC2)Cc2cc(OCCCC(=O)O)c(Cl)c(Cl)c2C1=O (centres unmarked) [DCPIB] |  |  | block of VRAC activity (VRAC [1]): completely blocked; effect on hypotonicity-induced VRAC currents (VRAC [2]): almost completely blocked
2 | O=C(O)c1cc([N+](=O)[O-])ccc1NCCCc1ccccc1 [NPPB, 5-nitro-2-(3-phenylpropylamino)-benzoic acid] | inhibited | inhibited | block of VRAC activity (VRAC [3]): potently blocked
3 | N=C(N)NC(=O)c1nc(Cl)c(N)nc1N [amiloride] |  |  | effect on ENaC channel activity (ENaC): fully blocked
4 | O=C(O)c1cccnc1Nc1cccc(C(F)(F)F)c1 [niflumic acid] | inhibited | inhibited | 
